From publication PMC9225712, “Rational design of biodegradable sulphonamide candidates treating septicaemia by synergistic dual inhibition of COX-2/PGE2 axis and DHPS enzyme” (Journal of Enzyme Inhibition and Medicinal Chemistry, 2022)
Marks after values point to notes of the source that are not given here.

Assays:
S. aureus Smith = conditions: for ED50: Staphylococcus aureus, in Mus musculus, read-out: ED50 against S. aureus infection; for ED50, protective effect against bacteremic infection, Staphylococcus aureus: mice, challenge dose 9.5x10^6 CFU/mouse ip, intragastric once a day for 7 days, survival
[1] = test system: Gram-positive and Gram-negative bacteria; experiment: In vitro antibacterial screening, whole panel; assay type: cell-based; conditions: whole bacterial panel, result in words
[2] = test system: Shigella dysenteriae (RCMB 0100542); experiment: Inhibition zone, agar cup diffusion; assay type: cell-based; conditions: RCMB0100542, 24 h, read-out: inhibition zones (IZ) S. dysenteriae
human recombinant COX-2 = target: T1, human recombinant COX-2 (Homo sapiens, UniProt P35354); experiment: In vitro COX-2 enzymatic assay (Cayman kit 560131); conditions: for SI COX-1/COX-2: COX-2 selectivity index: COX-1 IC50/COX-2 IC50
T1 sequence (P35354 18-604): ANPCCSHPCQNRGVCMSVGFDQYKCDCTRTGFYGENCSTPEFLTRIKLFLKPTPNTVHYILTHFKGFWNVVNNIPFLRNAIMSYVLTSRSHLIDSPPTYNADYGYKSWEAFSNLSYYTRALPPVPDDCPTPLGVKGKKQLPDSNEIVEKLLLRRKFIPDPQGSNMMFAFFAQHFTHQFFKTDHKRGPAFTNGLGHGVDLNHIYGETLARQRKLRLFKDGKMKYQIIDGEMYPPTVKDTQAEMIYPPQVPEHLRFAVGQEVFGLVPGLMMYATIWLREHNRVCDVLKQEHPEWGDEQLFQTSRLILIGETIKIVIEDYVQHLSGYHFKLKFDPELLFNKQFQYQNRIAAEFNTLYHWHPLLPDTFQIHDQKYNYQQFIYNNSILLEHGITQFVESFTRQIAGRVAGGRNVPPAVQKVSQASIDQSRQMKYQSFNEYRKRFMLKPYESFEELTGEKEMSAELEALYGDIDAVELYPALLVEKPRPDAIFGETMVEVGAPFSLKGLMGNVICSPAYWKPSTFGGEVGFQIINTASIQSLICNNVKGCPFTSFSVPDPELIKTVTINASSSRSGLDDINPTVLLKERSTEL

[3] = test system: Staphylococcus epidermidis (RCMB 0100183); experiment: Inhibition zone, agar cup diffusion; conditions: RCMB0100183, 24 h, read-out: inhibition zones (IZ) S. epidermidis
[4] = test system: Salmonella typhi (RCMB 0100104); experiment: Inhibition zone, agar cup diffusion; assay type: cell-based; conditions: Salmonella enterica, 24 h, read-out: inhibition zones (IZ) S. typhi
[5] = test system: carrageenan-induced paw edoema; experiment: Carrageenan-induced paw edoema in mice; conditions: for ED50: Mus musculus, 8 h, read-out: ED50 (95% confidence level); for Thickness of edoema 0h / percentage anti-inflammatory activity (AI%) 2h / Thickness of edoema 2h / percentage anti-inflammatory activity (AI%) 4h / Thickness of edoema 4h / percentage anti-inflammatory activity (AI%) 6h / Thickness of edoema 6h / Thickness of edoema 8h: mice, po 10 µmol/kg b.wt.; for Thickness of edoema 0h: 0 h (before carrageenan); for Thickness of edoema 0h / Thickness of edoema 2h / Thickness of edoema 4h / Thickness of edoema 6h / Thickness of edoema 8h: Mean ± SEM, n = 5; for Thickness of edoema 2h: 2 h after carrageenan; for Thickness of edoema 4h: 4 h after carrageenan; for Thickness of edoema 6h: 6 h after carrageenan; for Thickness of edoema 8h: 8 h after carrageenan
[6] = test system: Bacillus subtilis (RCMB 0100162); experiment: Inhibition zone, agar cup diffusion; conditions: RCMB0100162, 24 h, read-out: inhibition zones (IZ) B. subtillis
[7] = test system: Streptococcus mutans (RCMB 0100172); experiment: Inhibition zone, agar cup diffusion; conditions: RCMB0100172, 24 h, read-out: inhibition zones (IZ) S. mutans
gastric layers = experiment: Gastric ulcerogenic activity; conditions: fasted male Wistar rats, oral 30 µmol/kg twice at 4 h interval
[8] = test system: Staphylococcus aureus (RCMB 0100183); experiment: Inhibition zone, agar cup diffusion; conditions: RCMB0100183, 24 h, read-out: inhibition zones (IZ) S. aureus
[9] = test system: Pseudomonas aeruginosa (RCMB 0100243); experiment: Inhibition zone, agar cup diffusion; conditions: RCMB0100243, 24 h, read-out: inhibition zones (IZ) P.aeruginosa
PGE2 = experiment: Estimation of rat plasma PGE2; conditions: po 10 µmol/kg b.wt., 8 h after carrageenan; for % inhibition of PGE2-production: rat serum; for PGE2 serum conc.: rat, Mean ± SEM, n = 5
[10] = test system: Proteus vulgaris (RCMB 010085); experiment: Inhibition zone, agar cup diffusion; conditions: RCMB010085, 24 h, read-out: inhibition zones (IZ) P. vulgaris
[11] = test system: Escherichia coli (RCMB 010052); experiment: Inhibition zone, agar cup diffusion; conditions: RCMB010052, 24 h, read-out: inhibition zones (IZ) E.coli
ovine COX-1 = target: T2, ovine COX-1 (Ovis aries, UniProt P05979); experiment: In vitro COX-1 enzymatic assay (Cayman kit 560131); assay type: biochemical; conditions: Mean ± SEM of triplicate determinations
T2 construct: purchased Cayman Chemicals Inc. 560131
T2 sequence (P05979 25-600): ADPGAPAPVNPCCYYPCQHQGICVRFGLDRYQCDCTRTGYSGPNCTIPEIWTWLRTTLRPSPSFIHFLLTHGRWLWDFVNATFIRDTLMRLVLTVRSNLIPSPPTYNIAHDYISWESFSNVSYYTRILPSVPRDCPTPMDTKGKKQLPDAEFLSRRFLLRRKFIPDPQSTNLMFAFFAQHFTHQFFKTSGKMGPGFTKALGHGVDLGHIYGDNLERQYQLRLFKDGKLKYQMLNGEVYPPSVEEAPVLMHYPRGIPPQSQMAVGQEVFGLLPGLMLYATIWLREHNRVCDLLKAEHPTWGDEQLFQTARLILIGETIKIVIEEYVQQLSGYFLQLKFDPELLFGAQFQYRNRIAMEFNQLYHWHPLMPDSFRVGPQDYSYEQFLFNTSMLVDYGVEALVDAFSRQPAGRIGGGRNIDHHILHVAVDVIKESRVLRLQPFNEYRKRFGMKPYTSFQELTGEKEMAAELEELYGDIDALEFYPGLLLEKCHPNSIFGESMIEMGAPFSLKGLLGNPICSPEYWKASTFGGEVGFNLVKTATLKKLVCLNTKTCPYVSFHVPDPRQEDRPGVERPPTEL

E. coli C11 = conditions: for ED50: Escherichia coli, C11, in Mus musculus, read-out: ED50 against E.coli infection; for ED50, protective effect against bacteremic infection, Escherichia coli: mice, challenge dose 7.1x10^3 CFU/mouse ip, intragastric once a day for 7 days, survival

## CCCCNC(=O)c1cc(/N=N/c2ccc(S(=O)(=O)Nc3nccs3)cc2)ccc1O [Compound 5b, N-Butyl-2-hydroxy-5-((4-(N-(thiazol-2-yl)sulfamoyl)phenyl)diazenyl) benzamide]
S. aureus Smith
  ED50: 413 µmol/kg
  ED50, protective effect against bacteremic infection, Staphylococcus aureus: 413.1 µmol/kg/day
[1]
  in vitro antibacterial activity: weak in vitro antibacterial activity
[2]
  zone of inhibition at 1000 µg/mL: 22 mm
Human recombinant COX-2
  IC50: 0.07 ± 0.0005 µM
  SI COX-1/COX-2: 187.7
[3]
  zone of inhibition at 1000 µg/mL: 34 mm
[4]
  zone of inhibition at 1000 µg/mL: 14 mm
[5]
  ED50: 18.7 µmol/kg
  Thickness of edoema 0h: 0.68 ± 0.01 mm
  percentage anti-inflammatory activity (AI%) 2h: (0%)
  Thickness of edoema 2h: 0.95 ± 0.04 mm
  percentage anti-inflammatory activity (AI%) 4h: (20.83%)
  Thickness of edoema 4h: 1.19 ± 0.01 mm
  percentage anti-inflammatory activity (AI%) 6h: (45.85%)
  Thickness of edoema 6h: 1.11 ± 0.01 mm
  Thickness of edoema 8h: 1.01 ± 0.02 mm
[6]
  zone of inhibition at 1000 µg/mL: 20 mm
[7]
  zone of inhibition at 1000 µg/mL: 27 mm
Gastric layers
  Gastric ulcerogenic effect, histopathological examination of gastric layers: gastrointestinal safety profile
[8]
  zone of inhibition at 1000 µg/mL: 29 mm
[9]
  zone of inhibition at 1000 µg/mL: 16 mm
PGE2
  % inhibition of PGE2-production: 65.70%
  PGE2 serum conc.: 452.954 ± 6.48 pg/mL
[10]
  zone of inhibition at 1000 µg/mL: 19 mm
[11]
  zone of inhibition at 1000 µg/mL: 14 mm
Ovine COX-1
  IC50: 12.2 ± 0.06 µM
E. coli C11
  ED50: 416 µmol/kg
  ED50, protective effect against bacteremic infection, Escherichia coli: 415.7 µmol/kg/day

## O=C(c1cc(/N=N/c2ccc(S(=O)(=O)Nc3ncccn3)cc2)ccc1O)N1CCOCC1 [Compound 5n, 4-((4-Hydroxy-3-(morpholine-4-carbonyl)phenyl)diazenyl)-N-(pyrimidin-2-yl) benzenesulfonamide]
S. aureus Smith
  ED50: 353 to 413 µmol/kg
  ED50, protective effect against bacteremic infection, Staphylococcus aureus: 397.6 µmol/kg/day
[1]
  in vitro antibacterial activity: weak in vitro antibacterial activity
[2]
  zone of inhibition at 1000 µg/mL: 24 mm
Human recombinant COX-2
  IC50: 0.07 ± 0.0005 µM
  SI COX-1/COX-2: 153.6
[3]
  zone of inhibition at 1000 µg/mL: 33 mm
[4]
  zone of inhibition at 1000 µg/mL: 14 mm
[5]
  ED50: 14.4 µmol/kg
  Thickness of edoema 0h: 0.66 ± 0.004 mm
  percentage anti-inflammatory activity (AI%) 2h: (-8.42%)
  Thickness of edoema 2h: 1.03 ± 0.03 mm
  percentage anti-inflammatory activity (AI%) 4h: (10.42%)
  Thickness of edoema 4h: 1.29 ± 0.01 mm
  percentage anti-inflammatory activity (AI%) 6h: (51.71%)
  Thickness of edoema 6h: 0.99 ± 0.05 mm
  Thickness of edoema 8h: 0.90 ± 0.01 mm
[6]
  zone of inhibition at 1000 µg/mL: 17 mm
[7]
  zone of inhibition at 1000 µg/mL: 28 mm
Gastric layers
  Gastric ulcerogenic effect, histopathological examination of gastric layers: gastrointestinal safety profile
[8]
  zone of inhibition at 1000 µg/mL: 16 mm
[9]
  zone of inhibition at 1000 µg/mL: 14 mm
PGE2
  % inhibition of PGE2-production: 55.18%
  PGE2 serum conc.: 591.842 ± 5.96 pg/mL
[10]
  zone of inhibition at 1000 µg/mL: 18 mm
[11]
  zone of inhibition at 1000 µg/mL: 17 mm
Ovine COX-1
  IC50: 10.6 ± 0.08 µM
E. coli C11
  ED50, protective effect against bacteremic infection, Escherichia coli: 367.1 µmol/kg/day

## O=C(c1cc(/N=N/c2ccc(S(=O)(=O)Nc3ncccn3)cc2)ccc1O)N1CCCCC1 [Compound 5j, 4-((4-Hydroxy-3-(piperidine-1-carbonyl)phenyl)diazenyl)-N-(pyrimidin-2-yl) benzenesulfonamide]
S. aureus Smith
  ED50: 302 µmol/kg
  ED50, protective effect against bacteremic infection, Staphylococcus aureus: 302.1 µmol/kg/day
[1]
  in vitro antibacterial activity: weak in vitro antibacterial activity
[2]
  zone of inhibition at 1000 µg/mL: 25 mm
Human recombinant COX-2
  IC50: 0.05 ± 0.0005 µM
  SI COX-1/COX-2: 239.2
[3]
  zone of inhibition at 1000 µg/mL: 30 mm
[4]
  zone of inhibition at 1000 µg/mL: 15 mm
[5]
  ED50: 10.9 µmol/kg
  Thickness of edoema 0h: 0.67 ± 0.02 mm
  percentage anti-inflammatory activity (AI%) 2h: (15.79%)
  Thickness of edoema 2h: 0.80 ± 0.01^c mm
  percentage anti-inflammatory activity (AI%) 4h: (51.39%)
  Thickness of edoema 4h: 0.70 ± 0.01^c mm
  percentage anti-inflammatory activity (AI%) 6h: (70.73%)
  Thickness of edoema 6h: 0.60 ± 0.01^c mm
  Thickness of edoema 8h: 0.53 ± 0.01^c mm
[6]
  zone of inhibition at 1000 µg/mL: 19 mm
[7]
  zone of inhibition at 1000 µg/mL: 27 mm
Gastric layers
  Gastric ulcerogenic effect, histopathological examination of gastric layers: gastrointestinal safety profile
[8]
  zone of inhibition at 1000 µg/mL: 28 mm
[9]
  zone of inhibition at 1000 µg/mL: 16 mm
PGE2
  % inhibition of PGE2-production: 83.25%
  PGE2 serum conc.: 221.236 ± 4.62 pg/mL
[10]
  zone of inhibition at 1000 µg/mL: 17 mm
[11]
  zone of inhibition at 1000 µg/mL: 14 mm
Ovine COX-1
  IC50: 12.2 ± 0.06 µM
E. coli C11
  ED50: 273 µmol/kg
  ED50, protective effect against bacteremic infection, Escherichia coli: 272.7 µmol/kg/day
